“And” between values parts separate entries of the source, which are not always exact repeats. Identical values can stand only once. Like-named read-outs stand apart in the source and are kept apart here. Residues, ends and D or L forms follow the SMILES beside them. *: point of attachment. Palmitoyl = CCCCCCCCCCCCCCCC(=O)*; AEEA = NCCOCCOCC(=O)O
Tests used:
S. aureus NCTC8325 = assay: Bacterial membrane potential (DiOC2(3)); format: cell-based; conditions: 30 min of treatment
Protocol: For determination of membrane potential changes, S. aureus NCTC8325 was grown to log-phase in LB + 0.1% glucose, harvested and the optical density at 600 nm (OD600) was adjusted to 0.5. Bacteria were incubated with 30 µM 3,3′-diethyloxacarbocyanine iodide (DiOC2(3), Invitrogen™) for 15 min in the dark and treated with serial peptide concentrations for 30 min. The protonophore carbonyl cyanide m-chlorophenyl hydrazone (CCCP, Sigma Aldrich) was used as a positive control and DMSO or 0.01% acetic acid as negative controls. Fluorescence was measured at an excitation wavelength of 485 nm and two emission wavelengths, 530 nm (green) and 630 (nm) red, using a microplate reader (Tecan, Switzerland).

[1] = test system: C. rodentium strain ICC180; assay: Citrobacter rodentium gastrointestinal infection in mice; format: in vivo, C57BL/6N mice
Protocol: Bioluminescence expressing C. rodentium strain ICC180 was used for all infection experiments. C. rodentium inocula were prepared by culturing bacteria overnight at 37 °C in LB broth with 50 µg/ml kanamycin. Subsequently, the culture was diluted 1:100 in fresh medium, and sub-cultured for 4 h at 37 °C in LB broth. Bacteria were washed twice in phosphate-buffered saline (PBS). Mice were orally inoculated with 10^8 CFU of C. rodentium diluted in 200 µl PBS. Weight of the mice was monitored and feces were collected for measurements of the pathogen burden. After 5 days post infection mice received twice 250 µg peptide solved in 100 µl PBS or only PBS orally. The following day, mice were sacrificed to assess bacterial burden in the lumen and tissues of the cecum and the colon.
All mice were euthanized by asphyxiation with CO2 at indicated time points. Intestinal tissues (small intestine, cecum, colon) were removed aseptically. To collect intestinal content, organs were flushed with PBS. Organs were opened longitudinally, cleaned thoroughly with PBS and weighted. Organs and content were homogenized in PBS using a Polytron homogenizer (Kinemtatica). Dilutions of homogenized samples were plated on LB plates containing 50 μg/ml kanamycin to determine CFUs.

S. Typhimurium DSM554 = conditions: for Fold change in MIC: relative to MIC of first passage, Mean
Protocol: Development of resistance to the peptides was assessed with S. aureus and S. Typhimurium. […] Bacteria were cultured overnight at 37 °C at 150 rpm in TSB. Bacteria were washed twice with 10 mM sodium phosphate buffer containing 1% (w/v) TSB. […] After incubation, 100 µl of 6% TSB (w/v) was added and plates incubated in a humidified atmosphere for 21 h at 37 °C and 150 rpm.
The MIC, the lowest concentration of peptide/antibiotic that caused a lack of visible bacterial growth, was determined for each bacterial species. […] This was repeated for 25 passages.

S. Typhimurium = assay: Salmonella Typhimurium gastrointestinal infection in mice; format: in vivo, C57BL/6N mice; design: Body weight (% of initial): unit not given here
Protocol: For S. Typhimurium infections experiments, age- and sex-matched mice between 10 and 14 weeks of age were used. Both- female and male mice were used in experiments. […] Afterward, mice were supplied with water and food ad libitum. 20 h after streptomycin treatment, water and food were withdrawn again, 4 h before the mice were orally infected with 10^5 CFU of S. Typhimurium in 200 μl PBS. Drinking water ad libitum was supplied immediately and food 2 h post infection (p.i.). […] Mice were weighed every day to record potential body-weight loss. All mice were euthanized by asphyxiation with CO2 at indicated time points. Intestinal tissues (small intestine, cecum, colon) were removed aseptically. To collect intestinal content, organs were flushed with PBS. Organs were opened longitudinally, cleaned thoroughly with PBS and weighted. Organs and content were homogenized in PBS using a Polytron homogenizer ([…]).

S. aureus DSM20213 MRSA = conditions: DSM20213, 2 h
Protocol: (§1) Bactericidal activity was assessed by broth microdilution assay. Log-phase bacteria were collected by centrifugation (2500 rpm, 10 min, 4 °C), washed twice with 10 mM sodium phosphate buffer containing 1% (w/v) TSB and the optical density at 600 nm was adjusted to 0.1. Approximately 5 × 10^5 CFU/ml bacteria were incubated with serial peptide concentrations (1.17–150 µM) in a final volume of 100 µl in 10 mM sodium phosphate buffer containing 1% (w/v) TSB for 2 h at 37 °C. After incubation, 100 µl of 6% TSB (w/v) were added and absorbance was measured at 600 nm (Tecan, Switzerland) and monitored for 18 h. Afterward, 100 µl per well were plated on LB agar to determine the numbers of viable bacteria microbiologically. Bactericidal activity is expressed as the LC99.9, the lowest concentration that killed ≥99.9 % of bacteria.

[2] = test system: P. aeruginosa DSM1117 4-MRGN; conditions: DSM1117, 2 h
Protocol: as §1

[3] = test system: A. baumannii DSM30007 4-MRGN
Protocol: as §1

E. faecium DSM2918 VRE = conditions: DSM2918, 2 h
Protocol: as §1

E. coli 6940 3-MRGN = conditions: 2 h
Protocol: as §1

[4] = two doses of 250 µg orally 5 days p.i., following day, individual animals, N = 11
[5] = 250 µg orally 6 and 22 h p.i., 48 h after infection, individual animals, N = 12

Compound: CCCCCCCCCCCCCCCC(=O)NCCOCCOCC(=O)N[C@@H](CCCNC(=N)N)C(=O)NCC(=O)N[C@@H](CCCCN)C(=O)N[C@@H](C)C(=O)N[C@@H](CCCCN)C(=O)N[C@@H](CS)C(=O)N[C@@H](CS)C(=O)N[C@@H](CCCCN)C(=O)O [Pam-3] ({Palmitoyl-AEEA}-RGKAKCCK-OH; C-terminus assumed)
- effect on membrane potential (in words) (S. aureus NCTC8325): breakdown of the membrane potential in a concentration-dependent manner
- viable Citrobacter in colon content and colon tissue vs PBS (in words) ([1]; Mann–Whitney p = 0.0010 and p = 0.0104): significantly reduced
- bacteria in cecum content and cecum tissue vs PBS (in words) ([1]; Mann–Whitney p = 0.0104 and p = 0.0473): reduced the number of bacteria
- C. rodentium in cecum content [1, 4]: 20533880 CFU/g and 455636 CFU/g and 278413400 CFU/g and 15654650 CFU/g and 366007 CFU/g and 16133443 CFU/g and 143723333 CFU/g and 2819342 CFU/g and 262402624 CFU/g and 251094891 CFU/g and 226500566 CFU/g
- C. rodentium in cecum tissue [1, 4]: 490000 CFU/g and 307086614 CFU/g and 556897 CFU/g and 3530864 CFU/g and 21702128 CFU/g and 74039735 CFU/g and 1204147 CFU/g and 780234 CFU/g and 18903800 CFU/g and 586941 CFU/g and 191336 CFU/g
- C. rodentium in colon content [1, 4]: 1762185 CFU/g and 60751515 CFU/g and 1789819 CFU/g and 315018315 CFU/g and 310211946 CFU/g and 1173126615 CFU/g and 2621359 CFU/g and 289220 CFU/g and 25236170 CFU/g and 708075 CFU/g and 1616071 CFU/g
- C. rodentium in colon tissue [1, 4]: 58623.6 CFU/g and 30241621 CFU/g and 100000 CFU/g and 24432209 CFU/g and 42962357 CFU/g and 13239974 CFU/g and 61561.6 CFU/g and 13820.3 CFU/g and 2719752 CFU/g and 44329.9 CFU/g and 628386 CFU/g
- Fold change in MIC (S. Typhimurium DSM554; Day (passage) 0): 1.0
- Fold change in MIC (S. Typhimurium DSM554; Day (passage) 1): 0.7
- Fold change in MIC (S. Typhimurium DSM554; Day (passage) 2): 0.5
- Fold change in MIC (S. Typhimurium DSM554; Day (passage) 3): 0.7
- Fold change in MIC (S. Typhimurium DSM554; Day (passage) 4): 0.7
- Fold change in MIC (S. Typhimurium DSM554; Day (passage) 5): 0.7
- Fold change in MIC (S. Typhimurium DSM554; Day (passage) 6): 0.7
- Fold change in MIC (S. Typhimurium DSM554; Day (passage) 7): 0.8
- Fold change in MIC (S. Typhimurium DSM554; Day (passage) 8): 0.7
- Fold change in MIC (S. Typhimurium DSM554; Day (passage) 9): 0.7
- Fold change in MIC (S. Typhimurium DSM554; Day (passage) 10): 1.3
- Fold change in MIC (S. Typhimurium DSM554; Day (passage) 11): 1.2
- Fold change in MIC (S. Typhimurium DSM554; Day (passage) 12): 0.7
- Fold change in MIC (S. Typhimurium DSM554; Day (passage) 13): 0.8
- Fold change in MIC (S. Typhimurium DSM554; Day (passage) 14): 0.7
- Fold change in MIC (S. Typhimurium DSM554; Day (passage) 15): 0.375
- Fold change in MIC (S. Typhimurium DSM554; Day (passage) 16): 0.7
- Fold change in MIC (S. Typhimurium DSM554; Day (passage) 17): 1.0
- Fold change in MIC (S. Typhimurium DSM554; Day (passage) 18): 0.8
- Fold change in MIC (S. Typhimurium DSM554; Day (passage) 19): 0.7
- Fold change in MIC (S. Typhimurium DSM554; Day (passage) 20): 0.5
- Fold change in MIC (S. Typhimurium DSM554; Day (passage) 21): 0.7
- Fold change in MIC (S. Typhimurium DSM554; Day (passage) 22): 1.0
- Fold change in MIC (S. Typhimurium DSM554; Day (passage) 23): 0.5
- Fold change in MIC (S. Typhimurium DSM554; Day (passage) 24): 0.5
- Fold change in MIC (S. Typhimurium DSM554; Day (passage) 25): 0.5
- emergence of resistant isolates (in words) (S. Typhimurium DSM554; continuous serial passages): no resistant S. Typhimurium isolates emerged
- S. Typhimurium in cecum content (S. Typhimurium; [5]): 101000000 CFU/ml and 19300000 CFU/ml and 209000000 CFU/ml and 369000000 CFU/ml and 338000000 CFU/ml and 343000000 CFU/ml and 185000000 CFU/ml and 11700000 CFU/ml and 392000000 CFU/ml and 49300000 CFU/ml and 19200000 CFU/ml and 26400000 CFU/ml
- S. Typhimurium in cecum tissue (S. Typhimurium; [5]): 22792020 CFU/ml and 690476 CFU/ml and 510638 CFU/ml and 1770972 CFU/ml and 4139241 CFU/ml and 2249657 CFU/ml and 543580 CFU/ml and 809249 CFU/ml and 1834320 CFU/ml and 538642 CFU/ml and 466793 CFU/ml and 451429 CFU/ml
- S. Typhimurium in small intestine content (S. Typhimurium; [5]): 19170.1 CFU/ml and 3500 CFU/ml and 430000 CFU/ml and 36000 CFU/ml and 2200 CFU/ml and 10400 CFU/ml and 20600 CFU/ml and 69000 CFU/ml and 70112.2 CFU/ml and 111188 CFU/ml and 78651.7 CFU/ml and 1597222 CFU/ml
- S. Typhimurium in small intestine tissue (S. Typhimurium; [5]): 6700.17 CFU/ml and 99601.6 CFU/ml and 75335.4 CFU/ml and 1784.12 CFU/ml and 22916.7 CFU/ml and 29579.1 CFU/ml and 9803.92 CFU/ml and 82191.8 CFU/ml and 12841.1 CFU/ml and 8221.99 CFU/ml and 14925.4 CFU/ml and 10101 CFU/ml
- Body weight (% of initial) (S. Typhimurium; Day 0 of S. Typhimurium infection, individual animals, N = 12): 100
- Body weight (% of initial) (S. Typhimurium; Day 1 of S. Typhimurium infection, 250 µg orally 6 and 22 h p.i., individual animals, N = 12): 94.8627 and 88.6861 and 93.3869 and 93.4108 and 92.7247 and 90.6285 and 93.2755 and 91.8377 and 90.7373 and 93.6733 and 93.6223 and 95.0622
- Body weight (% of initial) (S. Typhimurium; Day 2 of S. Typhimurium infection, 250 µg orally 6 and 22 h p.i., individual animals, N = 12): 94.2562 and 87.7476 and 94.3788 and 93.5562 and 89.4912 and 89.5623 and 93.1887 and 92.315 and 87.1434 and 90.8742 and 93.7891 and 93.0505
- weight loss during infection (in words) (S. Typhimurium; Fig. 6d): tends to reduce weight loss
- CFU of S. Typhimurium in cecum content and tissue vs PBS (in words) (S. Typhimurium; Mann–Whitney p < 0.0001 and p = 0.0409): significantly reduced
- bacterial load in small intestine content vs PBS (in words) (S. Typhimurium; Mann–Whitney p = 0.0024): lowered the bacterial load
- bacterial load in small intestine tissue vs PBS (in words) (S. Typhimurium; Mann–Whitney p = 0.8621): without affecting
- LC99.9 (S. aureus DSM20213 MRSA): 9.38 (4.87-9.38) μM
- LC99.9 [2]: 9.38 µM
- growth inhibition of colistin- and tigecycline-resistant isolate (in words) [3]: inhibited the growth
- LC99.9 (E. faecium DSM2918 VRE): 9.38 (4.87-9.38) μM
- LC99.9 (E. coli 6940 3-MRGN): 9.38 µM
